# Data reported in patent publication US20260206755A1, “COMPOUNDS AND COMPOSITIONS HAVING KNOCK-DOWN OR BLOOD FEED INHIBITION ACTIVITY AGAINST INSECT PESTS” (priority 2017, published 2026).
# Where two headings read alike, the source gives them in different places.
# Test system: Anopheles stephensi
# Assay: Anopheles stephensi treated well plate contact test: knockdown and mortality
# Assay type: in vivo
# Settings: for Knock Down, with TFNA-AM / Knock Down, without TFNA-AM / pest or weed control at 0.2 ppm / pest or weed control at 2 ppm / pest or weed control at 20 ppm / pest or weed control at 200 ppm: knockdown after 1 hour; for mortality at 0.2 ppm / pest or weed control at 0.2 ppm / mortality at 2 ppm / pest or weed control at 2 ppm / mortality at 20 ppm / pest or weed control at 20 ppm / mortality at 200 ppm / pest or weed control at 200 ppm: Anopheles stephensi; for mortality % 24, without TFNA-AM / mortality % 48, without TFNA-AM / Knock Down, without TFNA-AM / mortality at 0.2 ppm / pest or weed control at 0.2 ppm / mortality at 2 ppm / pest or weed control at 2 ppm / mortality at 20 ppm / pest or weed control at 20 ppm / mortality at 200 ppm / pest or weed control at 200 ppm: without TFNA-AM; for pest or weed control at 0.2 ppm / pest or weed control at 2 ppm / pest or weed control at 20 ppm / pest or weed control at 200 ppm: read-out: Knock Down, without TFNA-AM
# Method: Examples Anopheles stephensi (Indian Malaria Mosquito)
# The individual wells of twelve (12) well tissue culture plates were treated with 200 μl of an ethanol solution containing a test compound of Table 1 or Table 2 at a defined concentration and repeated with also 200 μl of an ethanol solution containing in addition 2 ppm TFNA-AM. Once the deposits were dry, five non-blood fed adult female Anopheles stephensi (between two to five day old) were added to each well, and sustained with a 10% sucrose solution in a cotton wool plug. Assessment of the knockdown after 1 hour, and mortality after 24 and 48 hours was carried out.
# In case of multiple tests, the mean value is reported.
# [1] = test compound 0.2 ppm plus 2 ppm TFNA-AM, after 24 hours
# [2] = test compound 0.2 ppm plus 2 ppm TFNA-AM, after 48 hours
# [3] = test compound 0.2 ppm plus 2 ppm TFNA-AM
# [4] = test compound 2 ppm plus 2 ppm TFNA-AM, after 24 hours
# [5] = test compound 2 ppm plus 2 ppm TFNA-AM, after 48 hours
# [6] = test compound 2 ppm plus 2 ppm TFNA-AM
# [7] = test compound 20 ppm plus 2 ppm TFNA-AM, after 24 hours
# [8] = test compound 20 ppm plus 2 ppm TFNA-AM, after 48 hours
# [9] = test compound 20 ppm plus 2 ppm TFNA-AM
# [10] = test compound 200 ppm plus 2 ppm TFNA-AM, after 24 hours
# [11] = test compound 200 ppm plus 2 ppm TFNA-AM, after 48 hours
# [12] = test compound 200 ppm plus 2 ppm TFNA-AM
# [13] = test compound 200 ppm, adult females
# [14] = test compound 0.2 ppm, after 24 hours, read-out: mortality % 24, without TFNA-AM
# [15] = test compound 0.2 ppm, after 48 hours, read-out: mortality % 48, without TFNA-AM
# [16] = test compound 2 ppm, after 24 hours, read-out: mortality % 24, without TFNA-AM
# [17] = test compound 2 ppm, after 48 hours, read-out: mortality % 48, without TFNA-AM
# [18] = test compound 20 ppm, after 24 hours, read-out: mortality % 24, without TFNA-AM
# [19] = test compound 20 ppm, after 48 hours, read-out: mortality % 48, without TFNA-AM
# [20] = test compound 200 ppm, after 24 hours, read-out: mortality % 24, without TFNA-AM
# [21] = test compound 200 ppm, after 48 hours, read-out: mortality % 48, without TFNA-AM
smiles,measurement,setting,value
O=c1c(-c2cccc(C(F)(F)F)c2)c([O-])[n+](Cc2cncnc2)c2ccccn12 [Triflumizopyrim],"mortality % 24, with TFNA-AM",[1],0%
same,"mortality % 48, with TFNA-AM",[2],0%
same,"Knock Down, with TFNA-AM",[3],100%
same,"mortality % 24, without TFNA-AM","test compound 0.2 ppm, after 24 hours",0%
same,"mortality % 48, without TFNA-AM","test compound 0.2 ppm, after 48 hours",0%
same,"Knock Down, without TFNA-AM",test compound 0.2 ppm,0%
same,"mortality % 24, with TFNA-AM",[4],50%
same,"mortality % 48, with TFNA-AM",[5],50%
same,"Knock Down, with TFNA-AM",[6],100%
same,"mortality % 24, without TFNA-AM","test compound 2 ppm, after 24 hours",0%
same,"mortality % 48, without TFNA-AM","test compound 2 ppm, after 48 hours",0%
same,"Knock Down, without TFNA-AM",test compound 2 ppm,0%
same,"mortality % 24, with TFNA-AM",[7],90%
same,"mortality % 48, with TFNA-AM",[8],100%
same,"Knock Down, with TFNA-AM",[9],100%
same,"mortality % 24, without TFNA-AM","test compound 20 ppm, after 24 hours",0%
same,"mortality % 48, without TFNA-AM","test compound 20 ppm, after 48 hours",10%
same,"Knock Down, without TFNA-AM",test compound 20 ppm,0%
same,"mortality % 24, with TFNA-AM",[10],100%
same,"mortality % 48, with TFNA-AM",[11],100%
same,"Knock Down, with TFNA-AM",[12],100%
same,"mortality % 24, without TFNA-AM","test compound 200 ppm, after 24 hours",40%
same,"mortality % 48, without TFNA-AM","test compound 200 ppm, after 48 hours",40%
same,"Knock Down, without TFNA-AM",[13],0%
CCOc1cc(C(C)(C)C)ccc1C1COC(c2c(F)cccc2F)=N1 (stereo not shown) [Etoxazole],mortality at 0.2 ppm,[14],0%
same,mortality at 0.2 ppm,[15],0%
same,pest or weed control at 0.2 ppm,test compound 0.2 ppm,0%
same,mortality at 2 ppm,[16],0%
same,mortality at 2 ppm,[17],0%
same,pest or weed control at 2 ppm,test compound 2 ppm,0%
same,mortality at 20 ppm,[18],0%
same,mortality at 20 ppm,[19],0%
same,pest or weed control at 20 ppm,test compound 20 ppm,0%
same,mortality at 200 ppm,[20],0%
same,mortality at 200 ppm,[21],0%
same,pest or weed control at 200 ppm,[13],0%
same,"mortality % 24, with TFNA-AM",[1],40%
same,"mortality % 48, with TFNA-AM",[2],40%
same,"Knock Down, with TFNA-AM",[3],100%
same,"mortality % 24, with TFNA-AM",[4],60%
same,"mortality % 48, with TFNA-AM",[5],40%
same,"Knock Down, with TFNA-AM",[6],100%
same,"mortality % 24, with TFNA-AM",[7],60%
same,"mortality % 48, with TFNA-AM",[8],60%
same,"Knock Down, with TFNA-AM",[9],100%
same,"mortality % 24, with TFNA-AM",[10],80%
same,"mortality % 48, with TFNA-AM",[11],80%
same,"Knock Down, with TFNA-AM",[12],100%
C/C=C(\C)C(=O)O[C@H]1C[C@@H](OC(C)=O)[C@@]2(C(=O)OC)CO[C@H]3[C@@H](O)[C@@](C)([C@]45O[C@@]4(C)[C@H]4C[C@@H]5O[C@@H]5OC=C[C@@]54O)[C@H]4[C@]1(CO[C@]4(O)C(=O)OC)[C@@H]32 [Azadirachtin],mortality at 0.2 ppm,[14],0%
same,mortality at 0.2 ppm,[15],0%
same,pest or weed control at 0.2 ppm,test compound 0.2 ppm,0%
same,mortality at 2 ppm,[16],0%
same,mortality at 2 ppm,[17],0%
same,pest or weed control at 2 ppm,test compound 2 ppm,0%
same,mortality at 20 ppm,[18],0%
same,mortality at 20 ppm,[19],0%
same,pest or weed control at 20 ppm,test compound 20 ppm,0%
same,mortality at 200 ppm,[20],0%
same,mortality at 200 ppm,[21],0%
same,pest or weed control at 200 ppm,[13],0%
same,"mortality % 24, with TFNA-AM",[1],20%
same,"mortality % 48, with TFNA-AM",[2],20%
same,"Knock Down, with TFNA-AM",[3],100%
same,"mortality % 24, with TFNA-AM",[4],20%
same,"mortality % 48, with TFNA-AM",[5],20%
same,"Knock Down, with TFNA-AM",[6],100%
same,"mortality % 24, with TFNA-AM",[7],60%
same,"mortality % 48, with TFNA-AM",[8],40%
same,"Knock Down, with TFNA-AM",[9],100%
same,"mortality % 24, with TFNA-AM",[10],80%
same,"mortality % 48, with TFNA-AM",[11],80%
same,"Knock Down, with TFNA-AM",[12],100%
CCc1nn(C)c(C(=O)NCc2ccc(C(C)(C)C)cc2)c1Cl [Tebufenpyrad],mortality at 0.2 ppm,[14],0%
same,mortality at 0.2 ppm,[15],0%
same,pest or weed control at 0.2 ppm,test compound 0.2 ppm,0%
same,mortality at 2 ppm,[16],0%
same,mortality at 2 ppm,[17],0%
same,pest or weed control at 2 ppm,test compound 2 ppm,0%
same,mortality at 20 ppm,[18],13%
same,mortality at 20 ppm,[19],20%
same,pest or weed control at 20 ppm,test compound 20 ppm,0%
same,mortality at 200 ppm,[20],73%
same,mortality at 200 ppm,[21],67%
same,pest or weed control at 200 ppm,[13],0%
same,"mortality % 24, with TFNA-AM",[1],0%
same,"mortality % 48, with TFNA-AM",[2],0%
same,"Knock Down, with TFNA-AM",[3],93%
same,"mortality % 24, with TFNA-AM",[4],27%
same,"Knock Down, with TFNA-AM",[6],93%
same,"mortality % 24, with TFNA-AM",[7],80%
same,"Knock Down, with TFNA-AM",[9],93%
same,"mortality % 24, with TFNA-AM",[10],100%
same,"mortality % 48, with TFNA-AM",[11],100%
same,"Knock Down, with TFNA-AM",[12],93%
